Data taken from BindingDB's records for PubMed 39026645 (Tianjin University).

Target: T1, Polyphenol oxidase 4 (Agaricus bisporus, UniProt C7FF05)
T1 sequence (C7FF05 whole entry): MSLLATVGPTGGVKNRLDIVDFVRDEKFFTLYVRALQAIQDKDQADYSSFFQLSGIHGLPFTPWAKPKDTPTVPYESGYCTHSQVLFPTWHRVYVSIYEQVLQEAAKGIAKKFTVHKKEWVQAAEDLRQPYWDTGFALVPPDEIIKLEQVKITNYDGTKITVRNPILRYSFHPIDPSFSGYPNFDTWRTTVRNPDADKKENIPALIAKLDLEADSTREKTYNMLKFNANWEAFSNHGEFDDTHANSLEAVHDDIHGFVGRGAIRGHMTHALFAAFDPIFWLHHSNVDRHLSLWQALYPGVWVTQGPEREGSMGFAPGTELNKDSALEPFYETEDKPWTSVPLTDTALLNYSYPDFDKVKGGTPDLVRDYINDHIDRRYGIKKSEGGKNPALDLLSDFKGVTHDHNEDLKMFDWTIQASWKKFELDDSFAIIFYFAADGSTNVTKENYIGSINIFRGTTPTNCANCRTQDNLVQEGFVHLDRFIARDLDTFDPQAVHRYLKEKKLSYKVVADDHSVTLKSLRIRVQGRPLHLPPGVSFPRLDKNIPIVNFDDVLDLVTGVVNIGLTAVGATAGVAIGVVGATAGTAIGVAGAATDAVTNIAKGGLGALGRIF
Experiment: Inhibition of mushroom tyrosinase

Work on `COc1c(O)cc2occ(-c3ccc(O)cc3)c(=O)c2c1O` [Tectorigenin] yielded an IC50 of 1.4 nM.
`COc1c(O[C@@H]2O[C@H](CO)[C@@H](O)[C@H](O)[C@H]2O)cc2occ(-c3ccc(O)cc3)c(=O)c2c1O` [CHEBI:9428] gave an IC50 of 2.6 nM.
